Assays:
Format in all cases: binding
APOE (apolipoprotein E) = APOE (apolipoprotein E) (Homo sapiens, UniProt P02649); test: microscale thermophoresis with labelled recombinant APOE
mouse TREM2 (mTREM2) [1] = molecular target: T1, mouse TREM2 (mTREM2) (Mus musculus, UniProt Q99NH8); test: microscale thermophoresis
T1 sequence (Q99NH8 19-227): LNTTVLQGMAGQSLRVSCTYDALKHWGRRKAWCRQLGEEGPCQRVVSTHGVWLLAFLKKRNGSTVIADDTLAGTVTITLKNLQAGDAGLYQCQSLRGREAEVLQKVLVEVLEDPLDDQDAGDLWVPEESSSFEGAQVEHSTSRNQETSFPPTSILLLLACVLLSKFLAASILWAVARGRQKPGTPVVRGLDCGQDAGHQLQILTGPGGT

rat TREM2 (rTREM2) = molecular target: T2, rat TREM2 (rTREM2) (Rattus norvegicus, UniProt A0A6G8MV71); test: microscale thermophoresis with labelled recombinant TREM2
T2 sequence (A0A6G8MV71 19-229): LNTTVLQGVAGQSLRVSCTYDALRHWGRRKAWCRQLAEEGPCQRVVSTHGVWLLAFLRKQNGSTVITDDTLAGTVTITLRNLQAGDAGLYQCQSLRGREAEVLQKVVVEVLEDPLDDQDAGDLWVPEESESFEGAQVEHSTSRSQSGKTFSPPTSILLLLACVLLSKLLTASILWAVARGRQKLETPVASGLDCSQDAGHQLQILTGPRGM

TREM2 D104A (hTREM2) = molecular target: T3, TREM2 D104A (hTREM2) (Homo sapiens, UniProt Q9NZC2, D104A); test: microscale thermophoresis with labelled TREM2 D104A
T3 sequence (Q9NZC2 19-174 D104A limits assumed): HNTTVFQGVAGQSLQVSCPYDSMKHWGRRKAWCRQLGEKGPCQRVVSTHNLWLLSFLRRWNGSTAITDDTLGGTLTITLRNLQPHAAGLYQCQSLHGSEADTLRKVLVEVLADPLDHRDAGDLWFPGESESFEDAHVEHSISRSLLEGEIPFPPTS

human TREM2 (hTREM2) [2] = molecular target: T4, human TREM2 (hTREM2) (Homo sapiens, UniProt Q9NZC2); test: microscale thermophoresis
T4 sequence (Q9NZC2 19-230): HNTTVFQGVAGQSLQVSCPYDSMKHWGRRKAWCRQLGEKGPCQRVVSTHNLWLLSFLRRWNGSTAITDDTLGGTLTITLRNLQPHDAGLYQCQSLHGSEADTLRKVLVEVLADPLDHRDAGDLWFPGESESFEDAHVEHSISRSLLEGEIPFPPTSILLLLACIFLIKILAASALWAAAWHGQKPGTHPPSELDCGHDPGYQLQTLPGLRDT

human TREM2 (hTREM2) [3] = molecular target: T4, human TREM2 (hTREM2); test: microscale thermophoresis with labelled recombinant TREM2
mouse TREM2 (mTREM2) [4] = molecular target: T1, mouse TREM2 (mTREM2); test: as above

Chain of APOE (apolipoprotein E) (P02649 19-317): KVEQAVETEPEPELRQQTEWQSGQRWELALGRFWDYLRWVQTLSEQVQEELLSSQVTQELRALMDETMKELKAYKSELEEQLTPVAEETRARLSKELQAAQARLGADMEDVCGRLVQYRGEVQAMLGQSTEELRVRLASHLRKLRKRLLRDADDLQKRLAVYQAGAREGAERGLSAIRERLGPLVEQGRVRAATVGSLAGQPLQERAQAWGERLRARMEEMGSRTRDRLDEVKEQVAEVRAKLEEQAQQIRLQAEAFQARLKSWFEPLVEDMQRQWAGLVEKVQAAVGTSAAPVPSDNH

Structure (SMILES) | Kd (APOE (apolipoprotein E)) [µM] | Kd (mouse TREM2 (mTREM2) [1]) [µM] | Kd (rat TREM2 (rTREM2)) [µM] | Kd (TREM2 D104A (hTREM2)) [µM] | Kd (human TREM2 (hTREM2) [2]) [µM] | Kd (human TREM2 (hTREM2) [3]) [µM] | Kd (mouse TREM2 (mTREM2) [4]) [µM]
CCCCCCCCCCCCC/C=C/[C@@H](O)[C@@H](N)COP(=O)(O)O [S1P] | 6.64 ± 1.68 | 64.6 ± 16.6 | 56.8 ± 14 | 593 ± 97.6 | 62.6 ± 11.9 |  | 
CCCCCCCCc1ccc(CC[C@](N)(CO)COP(=O)(O)O)cc1 [FTY720P] | 15.9 ± 7.41 |  | 7.17 ± 2.21 |  |  | 6.75 ± 1.8 | 72.6 ± 21
